The molecules below were run against T1, wild type human POLγ (POLγA:WT) (Homo sapiens, UniProt P54098) (assay: DNA polymerization assay, wild type POLγ). Conditions: 100 μM dNTP, read-out: WT AC50 (μM) at 100 μM.
T1 sequence (P54098 1-1239): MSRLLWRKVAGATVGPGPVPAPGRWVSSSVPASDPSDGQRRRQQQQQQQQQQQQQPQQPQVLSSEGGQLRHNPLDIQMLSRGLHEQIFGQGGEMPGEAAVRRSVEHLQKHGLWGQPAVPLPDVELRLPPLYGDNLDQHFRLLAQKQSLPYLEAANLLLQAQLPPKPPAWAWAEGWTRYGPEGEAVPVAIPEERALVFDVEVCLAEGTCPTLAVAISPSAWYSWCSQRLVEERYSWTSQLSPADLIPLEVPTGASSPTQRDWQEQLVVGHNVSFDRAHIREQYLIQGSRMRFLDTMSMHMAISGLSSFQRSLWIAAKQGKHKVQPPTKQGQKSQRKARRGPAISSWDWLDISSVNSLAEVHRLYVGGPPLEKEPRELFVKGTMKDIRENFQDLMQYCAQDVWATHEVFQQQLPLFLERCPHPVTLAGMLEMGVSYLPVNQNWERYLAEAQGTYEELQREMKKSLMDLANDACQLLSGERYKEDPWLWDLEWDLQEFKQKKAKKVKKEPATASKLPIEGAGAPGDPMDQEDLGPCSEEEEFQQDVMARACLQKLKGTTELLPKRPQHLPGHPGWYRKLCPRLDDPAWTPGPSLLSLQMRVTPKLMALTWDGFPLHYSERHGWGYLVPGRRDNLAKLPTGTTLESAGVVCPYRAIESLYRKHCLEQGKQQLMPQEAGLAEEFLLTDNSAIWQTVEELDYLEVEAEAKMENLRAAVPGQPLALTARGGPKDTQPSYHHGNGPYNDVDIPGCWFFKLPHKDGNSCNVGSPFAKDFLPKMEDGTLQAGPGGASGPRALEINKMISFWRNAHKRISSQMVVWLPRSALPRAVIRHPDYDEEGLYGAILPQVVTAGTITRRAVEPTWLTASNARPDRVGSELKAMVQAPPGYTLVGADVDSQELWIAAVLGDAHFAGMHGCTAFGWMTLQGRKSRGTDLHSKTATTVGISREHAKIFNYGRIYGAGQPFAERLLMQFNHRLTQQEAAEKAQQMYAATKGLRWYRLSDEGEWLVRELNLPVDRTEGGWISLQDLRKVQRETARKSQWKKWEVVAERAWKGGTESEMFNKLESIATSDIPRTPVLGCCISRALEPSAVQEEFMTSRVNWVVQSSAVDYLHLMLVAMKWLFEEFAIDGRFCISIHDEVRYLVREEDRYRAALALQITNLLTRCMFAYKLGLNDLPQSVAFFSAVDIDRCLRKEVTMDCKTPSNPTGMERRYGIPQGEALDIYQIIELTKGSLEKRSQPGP
T1 sequence (Q9UHN1 1-485 partner): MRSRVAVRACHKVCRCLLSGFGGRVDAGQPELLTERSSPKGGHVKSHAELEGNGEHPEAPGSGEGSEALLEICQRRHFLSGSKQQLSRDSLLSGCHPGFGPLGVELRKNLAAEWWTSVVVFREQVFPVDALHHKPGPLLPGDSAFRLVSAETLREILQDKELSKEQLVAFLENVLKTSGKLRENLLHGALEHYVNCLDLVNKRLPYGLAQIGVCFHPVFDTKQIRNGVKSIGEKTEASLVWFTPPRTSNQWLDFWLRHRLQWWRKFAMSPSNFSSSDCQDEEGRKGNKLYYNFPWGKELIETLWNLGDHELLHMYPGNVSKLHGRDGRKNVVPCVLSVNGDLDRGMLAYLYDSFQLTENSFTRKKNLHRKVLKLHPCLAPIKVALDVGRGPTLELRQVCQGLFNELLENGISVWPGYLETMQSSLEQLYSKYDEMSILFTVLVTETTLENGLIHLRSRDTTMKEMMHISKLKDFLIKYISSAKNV
Type: biochemical
Method: DNA Polymerization Assay to Monitor Effects on Human Wildtype POLγ and Four Disease-Causing Mutant Variants of Human POLγ.
The ability of small molecules to stimulate the polymerase activity of POLγ was analyzed in a quantitative fluorescence SYBR Green I assay with fluorescence intensity (FI) readout.
In the presence of dNTPs, wild type human POLγ and mutant derivatives thereof were incubated with single-stranded, circular M13mp18 ssDNA hybridized to a short DNA oligonucleotide that functions as a primer for initiation of DNA synthesis. POLγ and mutant derivatives thereof will extend the primer and use the M13mp18 molecule as a template to synthesize long stretches of double-stranded DNA. SYBR Green I, which is a double-stranded DNA-binding dye, was used to quantify formation of double-stranded DNA in the reaction. When bound to double-stranded DNA, SYBR Green I fluorescence increases by up to 100-fold.
The assay was performed in the 384-well plate format. Upon addition of compounds, changes in double-stranded DNA synthesis activity can be monitored by following effects on fluorescent intensity.
The reactions also contained the accessory POLγB subunit, and the human mitochondrial single-stranded DNA binding protein (mtSSB).
The DNA template mixture used in the assay contained 0.5 nM primed M13 mp18 ssDNA, 400 nM mtSSB, 0.1 mM Tris-HCl (pH 8.0), 0.1 mM dNTP, 10 mM MgCl2, 0.1 mg/mL BSA, 1 mM TCEP solution, and 0.02% Triton X-100. The DNA template mixture for the wild type protein contained either 100 μM dNTP, 1 μM dNTP, or 0.1 μM dNTP, designated in Table 2 as 100 μM, 1 μM, and 0.1 μM, respectfully.
Microplates with compounds (0.1 μL in each well) to be tested in the assay were prepared from 10 mM compound stocks in 100% DMSO, and equal amounts of DMSO without any compound were added to positive and negative control wells.
The protein mixture was dispensed (5 μL into each well) into compound plates and incubated at 37° C. for 15 minutes. After incubation, 5 μL of the DNA template mixture was dispensed into each well. The plates were then incubated at 37° C. for 2 hours.
During incubation, a combined stop buffer and detection reagent solution was prepared. The buffer contained 25 mM EDTA (pH 8.0), 0.02% Triton X-100, and SYBR Green I [Invitrogen] diluted 10,000× (for fluorescent readout). EDTA will stop the enzymatic reaction by chelating magnesium ions.

| AC50 | Molecule |
| --- | --- |
| 32 µM | Cc1cc(S(=O)(=O)Nc2cccc(C(=O)N3CCCOC(C)(C)C3)c2)c(C)cc1Cl [Example 106, 4-chloro-N-(3-(2,2-dimethyl-1,4-oxazepane-4-carbonyl)phenyl)-2,5-dimethylbenzenesulfonamide] |
| 1 µM | Cc1cc(S(=O)(=O)Nc2cccc(C(=O)N3CCc4cn[nH]c4C3)c2)c(C)cc1Cl [Example 107, 4-chloro-2,5-dimethyl-N-(3-(4,5,6,7-tetrahydro-1H-pyrazolo[3,4-c]pyridine-6-carbonyl)phenyl)benzenesulfonamide] |
| 24 µM | Cc1cc(S(=O)(=O)Nc2cccc(C(=O)N3C[C@H](C)[C@@H](N)C3)c2)c(C)cc1Cl [Example 108, N-(3-((3R,4S)-3-amino-4-methylpyrrolidine-1-carbonyl)phenyl)-4-chloro-2,5-dimethylbenzenesulfonamide] |
| > 100 µM | Cc1cc(S(=O)(=O)Nc2cccc(C(=O)N(C)c3ccccn3)c2)c(C)cc1Cl [Example 109, 3-((4-chloro-2,5-dimethylphenyl)sulfonamido)-N-methyl-N-(pyridin-2-yl)benzamide] |
| > 100 µM | Cc1cc(NS(=O)(=O)c2cc(C)c(Cl)cc2C)cc(-c2ncc(C)s2)c1 [Example 110, 4-chloro-2,5-dimethyl-N-(3-methyl-5-(5-methylthiazol-2-yl)phenyl)benzenesulfonamide] |
| 3 µM | Cc1cnc(-c2cc(NS(=O)(=O)c3cc(C)c(Cl)cc3C)ccc2Cl)s1 [Example 111, 4-chloro-N-(4-chloro-3-(5-methylthiazol-2-yl)phenyl)-2,5-dimethylbenzenesulfonamide] |
| 20 µM | Cc1cc(S(=O)(=O)Nc2cccc(C(=O)N(C(C)C)C3COC3)c2)c(C)cc1Cl [Example 112, 3-((4-chloro-2,5-dimethylphenyl)sulfonamido)-N-isopropyl-N-(oxetan-3-yl)benzamide] |
| > 10 µM | Cc1cc(Cl)ccc1S(=O)(=O)Nc1cccc(C(=O)N2CCC[C@H]2C)c1 [Example 116, (R)-4-chloro-2-methyl-N-(3-(2-methylpyrrolidine-1-carbonyl)phenyl)benzenesulfonamide] |
| > 10 µM | Cc1cc(S(=O)(=O)Nc2cccc(C(=O)N3CCCC3)c2)c(C)cc1Cl [Example 119, 4-chloro-2,5-dimethyl-N-(3-(pyrrolidine-1-carbonyl)phenyl) benzenesulfonamide] |
| 3 µM | Cc1ccc(S(=O)(=O)Nc2csc(-c3ccccc3)n2)c(C)c1 [Example 123, 2,4-dimethyl-N-(2-phenylthiazol-4-yl)benzenesulfonamide] |
| 1 µM | Cc1cc(F)ccc1S(=O)(=O)Nc1csc(-c2ccccc2)n1 [Example 124, 4-fluoro-2-methyl-N-(2-phenylthiazol-4-yl)benzenesulfonamide] |
| > 10 µM | O=S(=O)(Nc1csc(-c2ccccc2)n1)c1ccccc1Cl [Example 125, 2-chloro-N-(2-phenylthiazol-4-yl)benzenesulfonamide] |
| 1 µM | Cc1cc(S(=O)(=O)Nc2nsc(-c3ccccc3)n2)c(C)cc1Cl [Example 131, 4-chloro-2,5-dimethyl-N-(5-phenyl-1,2,4-thiadiazol-3-yl)benzenesulfonamide] |
| 0.3 µM | Cc1ccc(C)c(S(=O)(=O)Nc2csc(-c3ccccc3)n2)c1 [Example 134, 2,5-dimethyl-N-(2-phenylthiazol-4-yl)benzenesulfonamide] |
| 0.6 µM | Cc1cc(Cl)ccc1S(=O)(=O)Nc1csc(-c2ccccc2)n1 [Example 135, 4-chloro-2-methyl-N-(2-phenylthiazol-4-yl)benzenesulfonamide] |
| 0.8 µM | Cc1cc(S(=O)(=O)Nc2csc(-c3ccccc3)n2)c(Cl)cc1F [Example 136, 2-chloro-4-fluoro-5-methyl-N-(2-phenylthiazol-4-yl)benzenesulfonamide] |
| > 10 µM | Cc1cc(S(=O)(=O)Nc2nc(-c3ccccc3)no2)c(C)cc1Cl [Example 143, 4-chloro-2,5-dimethyl-N-(3-phenyl-1,2,4-oxadiazol-5-yl)benzenesulfonamide] |
| > 10 µM | O=S(=O)(Nc1csc(-c2ccccc2)n1)c1cccc(C(F)(F)F)c1 [Example 151, N-(2-phenylthiazol-4-yl)-3-(trifluoromethyl)benzenesulfonamide] |
| > 10 µM | O=S(=O)(Nc1csc(-c2ccccc2)n1)c1ccc2c(c1)CCO2 [Example 152, N-(2-phenylthiazol-4-yl)-2,3-dihydrobenzofuran-5-sulfonamide] |
| 6 µM | Cc1cc(S(=O)(=O)Nc2ccc3c(c2)CC(=O)N3)c(C)cc1Cl [Example 185, 4-chloro-2,5-dimethyl-N-(2-oxoindolin-5-yl)benzenesulfonamide] |

| Molecule | AC50 |
| --- | --- |
| (R)-2,5-dimethyl-N-(3-(3-methylmorpholine-4-carbonyl)phenyl)benzenesulfonamide [Example 1] | 2 µM |

Same assay, conditions: WT AC50 (μM) at 100 μM, 100 μM dNTP

| AC50 | Molecule |
| --- | --- |
| > 10 µM | Cc1cc(S(=O)(=O)Nc2noc(-c3ccccc3)n2)c(C)cc1Cl [Example 142, 4-chloro-2,5-dimethyl-N-(5-phenyl-1,2,4-oxadiazol-3-yl)benzenesulfonamide] |
